Laboratory results taken from US20190105367A1, “ANTIMICROBIAL 4-OXOQUINOLIZINES” (Emergent Product Development Gaithersburg Inc., priority 2011, published 2019).
Converted amounts (≈) assume the structure as drawn. Like-named read-outs stand apart in the source and are kept apart here.

Columns and labels:
[1] = system: A. baumannii ATCC 19606; test: Preliminary MBC without and with sub-inhibitory polymyxin B (Example 4); assay type: cell-based, Acinetobacter baumannii
[2] = system: A. baumannii J2; test: as above; assay type: cell-based, Acinetobacter baumannii
[3] = system: Acinetobacter sp. (H064200250); test: as above; assay type: cell-based
Protocol: The plates were incubated for 18-20 hours at 37° C. The MBC was read as the lowest concentration at which colony growth was ca. 90% less than the positive control (i.e. usually where single colonies or no colonies were observed).

[4] = system: A. baumannii A489; test: MIC without and with sub-inhibitory polymyxin B (Example 4); assay type: cell-based, Acinetobacter baumannii
[5] = system: B. thailandensis; assay type: cell-based, Burkholderia thailandensis; details: for Dilutions improvement shift on B. thailandensis MIC90 (between pH 7 and pH 5): pH 7 vs pH 5
[6] = Cytotoxicity (Example 7); assay type: cell-based; details: human, HEPG2 V1 cells
Protocol: The 4-oxoquinolizine compounds of the invention preferably have a low cytotoxicity against human cells. […].
Cytotoxicity was determined for the instant 4-oxoquinolizine compounds which show low cytotoxicity. (see Table 17 following). […]

[7] = system: GN31 Acinetobacter baumannii antibiotic susceptible isolate; test: Chequerboard synergy with polymyxin B, FICI (Example 6); assay type: cell-based
From the text: (§1) A chequerboard technique was used to identify possible synergistic or antagonistic interactions between the 4-oxoquinolizines compounds, levofloxacin and polymyxin B. Levofloxacin was included as a control. […] Final dilutions were made in Mueller-Hinton broth, the specific test medium used for MIC determinations according to CLSI guidelines (CLSI. Methods for Dilution Antimicrobial Susceptibility Tests for Bacteria That Grow Aerobically; Approved Standard-Eighth Edition (2009). CLSI Document M07-A8. CLSI, Wayne, Pa. 19087-1898, USA.). The test medium used was a cation-adjusted Mueller-Hinton Broth II (Becton Dickinson UK Ltd., Oxford Science Park, Oxford, UK, OX4 4DQ).
(§2) The compounds 2, 33 and 35, as well as levofloxacin were tested in combination with polymyxin B on the following isolates: GN31 Acinetobacter baumannii—antibiotic susceptible clinical isolate, GN52 Acinetobacter baumannii—levofloxacin resistant clinical isolate, GN56 Acinetobacter baumannii—levofloxacin resistant clinical isolate, GN48 Klebsiella pneumoniae—NCTC 13443—NDM-1-metallo-β-lactamase and GN10 Pseudomonas aeruginosa—ATCC 27853—antibiotic susceptible reference isolate. All isolates are from the collection maintained at Quotient Bioresearch Ltd., Cambridge, UK.
(§3) The MIC values for the compounds and polymyxin B and levofloxacin were determined by broth microdilution following CLSI guidelines, and the MICs of agents in combination were determined as described by Pillai et. al (Pillai S K, Moellering R C Jr, Eliopoulis G M; Antimicrobial Combinations in Antibiotics in Laboratory Medicine 5th Edition (V. Lorian Ed) (2005) p 365-440). Initial MIC results were used to determine the microtiter plate patterns for the chequerboards. A suitable doubling dilution concentration range was selected such that the combination antibiotic range was at least two concentrations above and four concentrations below the MIC for each isolate. A fixed range of 0.008 to 8 mg/L was tested for polymyxin B except in the case of A. baumannii GN31 where a range of 0.004 to 4 mg/L was tested when in combination with the compounds 2, 33 and 35 as well as levofloxacin.
(§4) From the raw data, fractional inhibitory concentration indices (FICI) were determined for the compounds of the invention and levofloxacin together with polymyxin B for each isolate as follows:
(§5) FICX=concentration of the combination antibiotic in a particular row MIC of the combination drug alone
(§6) FICY=MIC of polymyxin B in combination[…]MIC of the polymyxin B alone
(§7) Additionally isobolograms were created to represent the same data visually. Here, the MIC of polymyxin B was plotted against every concentration of the combination antibiotic up to the MIC.

[8] = system: GN48 Klebsiella pneumoniae NCTC 13443 NDM-1-β-lactamase producing isolate; test: as above; assay type: cell-based
From the text: as §1, §2, §3, §4, §5, §6, §7

[9] = system: GN52 Acinetobacter baumannii levofloxacin resistant clinical isolate; test: as above; assay type: cell-based
From the text: as §1, §2, §3, §4, §5, §6, §7

[10] = system: GN56 Acinetobacter baumannii levofloxacin resistant clinical isolate; test: as above; assay type: cell-based
From the text: as §1, §2, §3, §4, §5, §6, §7

[11] = Acinetobacter baumannii, ATCC19606, A. baumannii ATCC 19606, +0.06 μg/ml PB, 2nd experiment, read-out: MBC
[12] = Acinetobacter baumannii, ATCC19606, read-out: MBC +0.06 μg/ml PB, A. baumannii ATCC 19606, +0.06 μg/ml polymyxin B, 1st experiment
[13] = Acinetobacter baumannii, J2, A. baumannii J2, +[…] PB, preliminary MBC, 2nd experiment, read-out: MBC
[14] = Acinetobacter baumannii, J2, read-out: MBC +[…] PB, A. baumannii J2, +[…] polymyxin B, preliminary MBC, 1st experiment
[15] = Acinetobacter, Acinetobacter spp. H064200250 (OXA51), +[…] PB, preliminary MBC, 2nd experiment, read-out: MBC
[16] = Acinetobacter, read-out: MBC +[…] PB, Acinetobacter spp. H064200250, +[…] polymyxin B, preliminary MBC, 1st experiment
[17] = Acinetobacter baumannii, A489, A. baumannii A489, +[…] PB, 2nd experiment, read-out: MIC
[18] = Acinetobacter baumannii, A489, read-out: MIC +[…] PB, A. baumannii A489, +[…] polymyxin B, 1st experiment
[19] = A. baumannii A489, +[…] PB, 2nd experiment
[20] = A. baumannii A489, ratio, PB […], 1st experiment
[21] = in combination with polymyxin B
[22] = polymyxin B with the named antibiotic

C[C@@H](O)[C@H]1C(=O)N2C(C(=O)O)=C(S[C@@H]3CN[C@H](C(=O)N(C)C)C3)[C@H](C)[C@H]12 [Meropenem]
MBC [1, 11]: 2 µg/mL (≈ 5.22 µM)
MBC [1, 12]: 2 µg/mL
MBC [2, 13]: ≤ 0.125 µg/mL
MBC [2, 14]: 1 µg/mL (≈ 2.61 µM)
MBC [3, 15]: 0.25 µg/mL (≈ 0.652 µM)
MBC [3, 16]: 1 µg/mL (≈ 2.61 µM)
MIC [4, 17]: ≤ 0.125 µg/mL
MIC [4, 18]: 0.5 µg/mL (≈ 1.3 µM)

Cc1c(-c2ccc(N)c(F)c2)ccn2c(=O)c(C(=O)O)cc(C3CC3)c12 [Compound 1, 8-(3-fluoro-4-amino-phenyl)-1-cyclopropyl-9-methyl-4-oxo-quinolizine-3-carboxylic acid]
Dilutions improvement shift on B. thailandensis MIC90 (between pH 7 and pH 5) [5]: Yes, 4x
IC50 [6]: 500 µM
MBC [1, 11]: ≤ 0.03 µg/mL
MBC [1, 12]: ≤ 0.03 µg/mL
MBC [2, 14]: ≤ 0.03 µg/mL
MBC ([3]; Acinetobacter): ≤ 0.03 µg/mL
MBC [3, 16]: 0.25 µg/mL (≈ 0.709 µM)
MIC without PB/MIC + PB [4, 19]: ≥512
MIC without PB/MIC + PB [4, 20]: ≥128
MIC [4, 17]: ≤ 0.03 µg/mL
MIC [4, 18]: ≤ 0.03 µg/mL

C[C@H]1COc2c(N3CCN(C)CC3)c(F)cc3c(=O)c(C(=O)O)cn1c23 [Levofloxacin, reference compound]
Combination drug MIC alone [7]: 0.06 µg/mL
FICx [7]: 0.13
FICy [7]: 1.00
FICI ([7]; combination with polymyxin B): 1.13
Synergy ([7]; combination with polymyxin B): Indifferent (indifference (FICI 0.76 to 2.75))
Combination drug concentration in combination [7, 21]: 0.008 mg/L
Polymyxin B MIC in combination [7, 22]: 0.5 µg/mL
Combination drug MIC alone [8]: 64 µg/mL
FICx [8]: 0.13
FICy [8]: 1.00
FICI ([8]; combination with polymyxin B): 1.13
Synergy ([8]; combination with polymyxin B): Indifferent (indifference (FICI 0.76 to 2.75))
Combination drug concentration in combination [8, 21]: 8 mg/L
Polymyxin B MIC in combination [8, 22]: 0.5 µg/mL
Combination drug MIC alone [9]: 8 µg/mL
FICx [9]: 0.13
FICy [9]: 1.00
FICI ([9]; combination with polymyxin B): 1.13
Synergy ([9]; combination with polymyxin B): Indifferent (indifference (FICI 0.76 to 2.75))
Combination drug concentration in combination [9, 21]: 1 mg/L
Polymyxin B MIC in combination [9, 22]: 0.5 µg/mL
Combination drug MIC alone [10]: 32 µg/mL
FICx [10]: 0.13
FICy [10]: 1.00
FICI ([10]; combination with polymyxin B): 1.13
Synergy ([10]; combination with polymyxin B): Indifferent (indifference (FICI 0.76 to 2.75))
Combination drug concentration in combination [10, 21]: 4 mg/L
Polymyxin B MIC in combination [10, 22]: 0.5 µg/mL
MBC [2, 13]: 4 µg/mL (≈ 11.1 µM)
MBC ([2]; Acinetobacter baumannii, J2, read-out: MBC +[…] PB): 8 µg/mL (≈ 22.1 µM)
MBC [3, 15]: 8 µg/mL (≈ 22.1 µM)
MIC without PB/MIC + PB [4, 19]: 4
MIC without PB/MIC + PB [4, 20]: 2
MIC [4, 17]: 8 µg/mL (≈ 22.1 µM)
MIC [4, 18]: 8 µg/mL (≈ 22.1 µM)

8-[(3S)-3-aminocyclopentyl]-1- cyclopropyl-7-fluoro-9-methyl- 4-oxo-quinolizine-3-carboxylic acid [Compound 10, reference compound]
MIC90 B. thailandensis [5]: <0.048 µg/mL
Dilutions improvement shift on B. thailandensis MIC90 (between pH 7 and pH 5) [5]: Yes, 2x
MBC ([1]; A. baumannii ATCC 19606, +0.06 μg/ml PB, 2nd experiment): 0.03 µg/mL
MBC +0.06 μg/ml PB ([1]; A. baumannii ATCC 19606, +0.06 μg/ml polymyxin B, 1st experiment): 0.03 µg/mL
MBC ([1]; A. baumannii ATCC 19606, without PB, 2nd experiment): 0.125 µg/mL
MBC ([2]; A. baumannii J2, +[…] PB, preliminary MBC, 2nd experiment): 0.25 µg/mL
MBC +[…] PB ([2]; A. baumannii J2, +[…] polymyxin B, preliminary MBC, 1st experiment): 1 µg/mL
MBC ([2]; A. baumannii J2, without PB, preliminary MBC, 2nd experiment): 2 µg/mL
MBC without PB ([2]; A. baumannii J2, without polymyxin B, preliminary MBC, 1st experiment): 1 µg/mL
MBC ([3]; Acinetobacter spp. H064200250 (OXA51), +[…] PB, preliminary MBC, 2nd experiment): 0.5 µg/mL
MBC ([3]; Acinetobacter spp. H064200250 (OXA51), without PB, preliminary MBC, 2nd experiment): 1 µg/mL
MBC +[…] PB ([3]; Acinetobacter spp. H064200250, +[…] polymyxin B, preliminary MBC, 1st experiment): 1 µg/mL
MBC without PB ([3]; Acinetobacter spp. H064200250, without polymyxin B, preliminary MBC, 1st experiment): 0.5 µg/mL
MIC [4, 19]: 0.5 µg/mL
MIC without PB/MIC + PB [4, 19]: 2
MIC +[…] PB ([4]; A. baumannii A489, +[…] polymyxin B, 1st experiment): 1.00 µg/mL
MIC without PB/MIC + PB [4, 20]: 1
MIC ([4]; A. baumannii A489, without PB, 2nd experiment): 1 µg/mL
MIC without PB ([4]; A. baumannii A489, without polymyxin B, 1st experiment): 1 µg/mL
